Assay results reported in US12344606B2, “Next-generation modulators of stimulator of interferon genes (STING)” (RYVU THERAPEUTICS S.A., priority 2019, dated 2025).

Columns and labels:
human STING = human STING (Homo sapiens, UniProt Q86WV6); test: Fluorescence Thermal Shift assay (hSTING FTS binding assay); conditions: STING 0.1 mg/ml, 20 min preincubation, SyproOrange
Method in brief: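 STING protein (final 0.1 mg/ml) preincubated 20 min with compound in 50 mM Hepes, 150 mM NaCl, pH 7.5, then SyproOrange dye added. Thermal unfolding monitored by fluorescence from 25 to 99° C. at a continuous ramp of 0.033° C./s.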

[1] = tested on: interferon regulatory factor (IRF) pathway in THP-1 dual cells; test: THP-1 Dual reporter assay, IRF pathway (luciferase); format: cell-based; conditions: Homo sapiens, THP1-Dual; 18 h stimulation, luminescence
Method in brief: (§1)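 THP-1 dual reporter cells stimulated 18 h with STING agonist; culture medium then sampled. IRF activity read as ISG54/ISRE-driven luciferase luminescence; NF-κB activity read as SEAP absorbance at 630 nm (or 655 nm) after 2 h (or 1 h) at 37° C with detection medium.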

[2] = tested on: NF-κB pathway in THP-1 dual cells; test: THP-1 Dual reporter assay, NF-κB pathway (SEAP); format: cell-based; conditions: Homo sapiens, THP1-Dual; 18 h stimulation, absorbance; read-out: THP1 Dual EC50 (μM) NFkB
Method in brief: as §1

[3] = tested on: CT26 murine colon carcinoma allografts; test: In vivo anti-tumor efficacy in CT26 allografts; design: species or system female Balb/C mice; conditions: for efficacy of dose: once every fifth day x3, 10% Captisol in PBS
Protocol: The efficacy of Example 1 was evaluated in established CT26 murine colon carcinoma allografts in female Balb/C mice. Example 1 was formulated in 10% Captisol in PBS and administered intravenously, once every fifth day on three occasions. The solution was prepared fresh prior to each administration. […] In both treatment groups tumor growth delay was observed when compared to the control group. By the end of the study, on day 42, there were 3 and 6 complete responses recorded for mice treated at 2 and 3 mg/kg E5Dx3, respectively.

CT26 cells = test: CT26 re-challenge study of mice with complete responses; format: in vivo, Balb/C mice
Protocol: Mice with complete responses were subjected to a re-challenge study. CT26 cells were injected into the flank opposite to an original site of inoculation. Naïve mice were included into the re-challenge study as a control of the tumor growth kinetics.

Sequence of human STING (Q86WV6 whole entry H232R): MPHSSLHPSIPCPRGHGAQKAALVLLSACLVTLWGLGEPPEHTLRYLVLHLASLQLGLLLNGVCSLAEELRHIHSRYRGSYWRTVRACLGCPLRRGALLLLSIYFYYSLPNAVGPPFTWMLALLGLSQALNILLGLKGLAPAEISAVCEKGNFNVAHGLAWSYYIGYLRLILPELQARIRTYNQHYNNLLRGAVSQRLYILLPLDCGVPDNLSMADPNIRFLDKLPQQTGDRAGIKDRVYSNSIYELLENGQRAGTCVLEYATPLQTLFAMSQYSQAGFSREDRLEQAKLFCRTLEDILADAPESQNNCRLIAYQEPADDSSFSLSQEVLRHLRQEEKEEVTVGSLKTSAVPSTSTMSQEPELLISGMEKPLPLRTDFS

Row | SMILES | hSTING FTS binding assay (ΔT C.°) (human STING) | EC50 [1] | EC50 [2] | TGI (tumor growth inhibition) ([3]; 2 mg/kg E5Dx3, 11th day) | complete responses (number of mice) ([3]; 2 mg/kg E5Dx3, day 42) | efficacy of dose ([3]; 2 mg/kg i.v.) | TGI (tumor growth inhibition) ([3]; 3 mg/kg E5Dx3, 11th day) | complete responses (number of mice) ([3]; 3 mg/kg E5Dx3, day 42) | efficacy of dose ([3]; 3 mg/kg i.v.) | mice that developed tumors on re-challenge (CT26 cells; six mice with complete responses dosed previously at 3 mg/kg, substantial delay in tumor growth) | mice that developed tumors on re-challenge (CT26 cells; three mice with complete responses dosed previously at 2 mg/kg)
1 | COc1cc(CN(Cc2cn(C)c3ccccc3c2=O)[C@H]2CCCN(c3cccnc3)C2)ccn1 [Example 1, 3-({[(2-methoxypyridin-4-yl)methyl][(3S)-1-(pyridin-3-yl)piperidin-3-yl]amino}methyl)-1-methyl-1,4-dihydroquinolin-4-one] | ++ (ΔTm>10° C.) | ≤ 1 µM | ≤ 1 µM | 52% | 3 | moderately efficacious dose | 80% | 6 | full efficacious dose | two of them developed a tumor | none of them developed tumors
2 | Cc1ccc(N2CCC[C@H](N(Cc3ccnc(C)c3)Cc3cn(C4CC4)c4cc(Cl)ncc4c3=O)C2)cn1 [Example 56, 7-chloro-1-cyclopropyl-3-({[(3S)-1-(6-methylpyridin-3-yl)piperidin-3-yl][(2-methylpyridin-4-yl)methyl]amino}methyl)-1,4-dihydro-1,6-naphthyridin-4-one] | + (ΔTm<10° C.) | ≤ 1 µM | 1 to 10 µM | – | – | – | – | – | – | – | –
3 | COc1cc(CN(Cc2cn(C3CC3)c3cc(Cl)c(F)cc3c2=O)[C@H]2CCCN(c3cccnc3)C2)ccn1 [Example 28, 7-chloro-1-cyclopropyl-6-fluoro-3-({[(2-methoxypyridin-4-yl)methyl][(3S)-1-(pyridin-3-yl)piperidin-3-yl]amino}methyl)-1,4-dihydroquinolin-4-one] | ++ (ΔTm>10° C.) | ≤ 1 µM | ≤ 1 µM | – | – | – | – | – | – | – | –
4 | Cc1cc(CN(Cc2cn(C)c3ccccc3c2=O)C2CN(c3cccnc3)CC(F)(F)C2)ccn1 (centres unmarked) [Example 34, 3-({[5,5-difluoro-1-(pyridin-3-yl)piperidin-3-yl][(2-methylpyridin-4-yl)methyl]amino}methyl)-1-methyl-1,4-dihydroquinolin-4-one] | + (ΔTm<10° C.) | ≥ 10 µM | ≥ 10 µM | – | – | – | – | – | – | – | –
5 | Cc1ccc(N2CCC[C@H](N(Cc3ccnc(C)c3)Cc3cn(C4COC4)c4ccccc4c3=O)C2)cn1 [Example 50, 3-({[(3S)-1-(6-methylpyridin-3-yl)piperidin-3-yl][(2-methylpyridin-4-yl)methyl]amino}methyl)-1-(oxetan-3-yl)-1,4-dihydroquinolin-4-one] | ++ (ΔTm>10° C.) | ≤ 1 µM | ≤ 1 µM | – | – | – | – | – | – | – | –
6 | COc1cc2c(cc1F)c(=O)c(CN(Cc1ccnc(C)c1)[C@H]1CCCN(c3ccc(C)nc3)C1)cn2C1CC1 [Example 45, 1-cyclopropyl-6-fluoro-7-methoxy-3-({[(3S)-1-(6-methylpyridin-3-yl)piperidin-3-yl][(2-methylpyridin-4-yl)methyl]amino}methyl)-1,4-dihydroquinolin-4-one] | ++ (ΔTm>10° C.) | ≤ 1 µM | ≤ 1 µM | – | – | – | – | – | – | – | –
